Test results from patent publication US20240408167A1, “COMPOSITION FOR TREATING OCULAR DISEASES CONTAINING PEPTIDE” (Encuragen Inc., priority 2023, published 2024).

Test system: mouse experimental dry eye (EDE) model
Assay: Tear volume, phenol red thread test, EDE mouse model
Format: in vivo
Protocol: To confirm the pharmacological effect and appropriate dosage, a pilot study was first conducted with the mice. In addition, a rabbit DED (Dry Eye Disease) model with a large exposed facial area was evaluated in comparison with a mouse model. In the mouse experimental dry eye (EDE) model, scopolamine hydrobromide (Sigma-Aldrich. St. Louis, MO, USA) was subcutaneously injected three times a day (9 a.m., 1:30 p.m., 6 p.m.) in a room exposed to ventilation with an ambient humidity of less than 40% at 25±2° C. to induce DED.
The mice were randomly divided into five groups: (1) EDE (experimental dry eye) control mice without eye drops administration, (2) EDE mice treated with a vehicle (phosphate-buffered saline), (3) EDE mice treated with 0.001% (PEG)-BHD1028 (4) EDE mice treated with 0.01% (PEG)-BHD1028, and (5) EDE mice treated with 0.1% (PEG)-BHD1028. All the treatment groups received 2 μL of eye drops three times a day.
The tear secretion was measured for 20 seconds by contacting a cotton thread containing phenol red (Zone-Quick™; Oasis Medical, Inc., Glendora, CA, USA) to the conjunctival sac on the lateral canthus of the mouse eye. After measuring the length using a Nikon SMZ1500 microscope, the length substituted to the prescribed formula, and the value was converted to volume. The tear production of the rabbits was measured by a modified Schirmer tear test using Whatman 41 filter paper strips (Tianjin Jingming New Technology Development Co., Ltd., Tianjin, China) on Day 0, Day 5, and Day 10. Eye examination of the rabbits was performed under anesthesia. The anesthesia was performed under sedation by performing intramuscular injection of xylazine (3 mg/kg, Rompun®; Bayer Korea, Korea) and intramuscular injection of 10 mg/kgtiletamine/zolazepam (Zoletil®, Virbac Laboratories, Carros, France). After adding 1 drop of proparacaine HCl 0.5% (Alcaine®, Alcon Korea Ltd., Seoul, Korea), excess tears and eye drops were removed with Weck-cel® […]. The wet length (mm) of the paper strip was read after 5 minutes.
The tear volume of the mice was measured using the Phenol Red Thread (PRT) test on Day 5 and Day 10 after the treatment.

Work on “NH2-Tyr-Tyr-Phe-Ala-Tyr-His-Pro-Asn-Ile-Pro-Gly-Leu-Tyr-Tyr-Phe-COOH (H-YYFAYHPNIPGLYYF-OH; also: PEGylated, site not given here (mPEG), acetate salt) [(PEG)-BHD1028]” yielded a Tear volume (0.001% eye drops three times a day, Day 5) of 0.024 ± 0.003 µL, a Tear volume (0.001% eye drops three times a day, Day 10) of 0.021 ± 0.002 µL and a Tear volume (0.01% eye drops three times a day, Day 5) of 0.026 ± 0.003 µL. For the same substance, the Tear volume (0.01% eye drops three times a day, Day 10) was 0.027 ± 0.003 µL, the Tear volume (0.1% eye drops three times a day, Day 5) was 0.028 ± 0.002 µL and the Tear volume (0.1% eye drops three times a day, Day 10) was 0.032 ± 0.004 µL.
